# Measurements as given in patent US4168206A, “Impregnated disk method for testing antifungal susceptibility” (Philadelphia College of Osteopathic Medicine, priority 1977, dated 1979).
# Like-named read-outs stand apart in the source and are kept apart here.
# Tests used:
# Candida albicans [1] = experiment: MIC by broth dilution method, Candida albicans; format: cell-based; details: Candida albicans
# From the text: (§1) The preparation of the nutrient media, the antifungal agents and the fungi to be tested in the present invention are similar to those reported in S. Shadomy and A. Espinel-Ingroff, "Susceptibility Testing Of Antifungal Agents", Ch. 63, pp. 569-574 in E. H. Lennett, E. H. Spaulding, and J. P. Truant, Eds., Manual Of Clinical Microbiology, 2nd Ed., American Society for Microbiology, Washington, D.C. (1974). This publication describes the susceptibility testing of antifungal agents, namely, amphotericin B, nystatin and 5-fluoro-cytosine (5-FC), by the "broth dilution method" and the "semisolid agar dilution method". At pages 570-571, it is stated:
# (§2) In 10 duplicate runs with each strain tested, the variation in minimum inhibitory concentration averaged ±0.05 μg/ml.
# (§3) *Broth dilution method conducted in accordance with S. Shadomy and E.
# (§4) Espinel-Ingroff, "Susceptibility Testing of Antifungal Agents", Ch. 63,
# (§5) pp. 569-574 in E. H. Spaulding and J. P. Truant, Eds., Manual Of Clinical
# (§6) Microbiology, 2nd Ed., American Society for Microbiology, Washington, […]
# C. parapsilosis = experiment: MIC by broth dilution method, Candida parapsilosis; format: cell-based; details: Lodderomyces parapsilosis
# From the text: as §1, §2, §3, §4, §5, §6
# C. tropicalis = experiment: MIC by impregnated disk method, Candida tropicalis; format: cell-based; details: Candida tropicalis, read-out: Minimum Inhibitory Concentration, Disk
# Experimental: (§7) Stock solutions of the antifungal agents to be tested are preferably prepared by diluting the antifungal agents in the proper nutrient medium. It is presently preferred to prepare dilutions in 10 ml of the proper medium to give the following final concentrations when applied to the disks (all quantities in micrograms per milliliter): 0.05, 0.08, 0.09, 0.1; 0.1 increment increases to 0.9, 1.0; 0.5 increment increases to 10.0; and 12.0, 14.0, 20.0, 25.0 and 50.0. Disks have been prepared by placing 0.05 ml of the above dilutions of antifungal agent containing medium on 6.5 mm diameter disks in 0.01 or 0.02 ml increments. The impregnated disks are then allowed to dry at a temperature preferably below about 10° C. […] The disks may also be dried by a lyophilization or freeze drying process.
# (§8) To perform the tests in accordance with the present inventions, disks impregnated with various concentrations of antifungal agent and nutrient medium and a control disk impregnated only with the corresponding nutrient medium are placed on the fungus to be tested which has been applied to the non-nutrient medium. The disks are the inoculated non-nutrient medium are then incubated at a suitable temperature for a sufficient time to promote growth of the fungus. Any temperature is suitable if it will promote growth of the fungus without adversely affecting the fungus or the activity of the antifungal agent or agents tested. The time of incubation can be determined by observing the extent of growth around the control disk. […] The zones of growth or inhibition around the disks were read at 6, 12, 24, 36 and 48 hours after the disks were placed on the tested fungus.
# (§9) The minimum inhibitory concentration is defined as the lowest concentration of antifungal agent which inhibits visible growth. […]
# (§10) Several test disks and a control disk were placed in each petri dish containing the inoculated agar. The disks and petri dishes were then incubated at 29° C. and the minimum inhibitory concentration of the various concentrations of the antifungal agents were read at 6, 12, 24, 36 and 48 hours. […]
# Cryptococcus neoformans [2] = experiment: MIC by impregnated disk method, Cryptococcus neoformans; format: cell-based; details: Cryptococcus neoformans
# Experimental: as §7, §8
# The minimum inhibitory concentration is defined as the lowest concentration of antifungal agent which inhibits visible growth. The disks containing concentrations of antifungal agents below the minimum inhibitory concentration show circumscribed growth of the fungus around the disk. Disks containing concentrations of antifungal agent at or above the minimum inhibitory concentration show no circumscribed growth.
# Clinical isolates of various fungi listed in Table 1 were obtained from different patients diagnosed as having fungal infections. The fungal inocula were prepared by using a 24-48 hour cultures grown in yeast nitrogen base containing 1% glucose and 0.15% asparagine. After centrifuging, the supernatant was removed, the sedimented cells were washed twice with sterile distilled water and a cell suspension was adjusted to 80% transmission at 520 nm using a Beckman DB-GT grating spectrophotometer.
# Sterile liquified 2% purified agar was placed in petri dishes and allowed to harden. The surface of the agar was inoculated with a sterile cotton swab saturated with a suspension of an organism. The uniformly swabbed plates were then allowed to dry.
# Disks were prepared using the dilutions described above for amphotericin B, nystatin and 5-fluorocytosine. 0.05 ml of the dilutions of each antifungal agent diluted with the appropriate nutrient medium were pipetted on 6.5 mm diameter disks. The disks were dried at 4° C. after each application. Control disks were also prepared.
# Several test disks and a control disk were placed in each petri dish containing the inoculated agar. The disks and petri dishes were then incubated at 29° C. and the minimum inhibitory concentration of the various concentrations of the antifungal agents were read at 6, 12, 24, 36 and 48 hours.
# as §2
# Cryptococcus neoformans [3] = experiment: MIC by broth dilution method, Cryptococcus neoformans; format: cell-based; details: Cryptococcus neoformans
# From the text: as §1, §2, §3, §4, §5, §6
# Geotrichum candidum [4] = experiment: MIC by impregnated disk method, Geotrichum candidum; format: cell-based; details: read-out: Minimum Inhibitory Concentration, Disk
# Experimental: as §7, §8, §9, §10
# Geotrichum candidum [5] = experiment: MIC by broth dilution method, Geotrichum candidum; format: cell-based; details: read-out: Minimum Inhibitory Concentration, Broth
# From the text: as §1, §2, §3, §4, §5, §6
# Saccharomyces cerevisiae = experiment: MIC by broth dilution method, Saccharomyces cerevisiae; format: cell-based; details: Saccharomyces cerevisiae
# From the text: as §1, §2, §3, §4, §5, §6
# Trichosporon sp. [6] = experiment: MIC by impregnated disk method, Trichosporon sp.; format: cell-based; details: Trichosporon, read-out: Minimum Inhibitory Concentration, Disk
# Experimental: as §7, §8, §9, §10
# Trichosporon sp. [7] = experiment: MIC by broth dilution method, Trichosporon sp.; format: cell-based; details: Trichosporon, read-out: Minimum Inhibitory Concentration, Broth
# From the text: as §1, §2, §3, §4, §5, §6
# Torulopsis glabrata [8] = experiment: MIC by impregnated disk method, Torulopsis glabrata; format: cell-based; details: Nakaseomyces glabratus, read-out: Minimum Inhibitory Concentration, Disk
# Experimental: as §7, §8, §9, §10
# Torulopsis glabrata [9] = experiment: MIC by broth dilution method, Torulopsis glabrata; format: cell-based; details: Nakaseomyces glabratus, read-out: Minimum Inhibitory Concentration, Broth
# From the text: as §1, §2, §3, §4, §5, §6
# Candida albicans [10] = experiment: Minimum fungicidal concentration by broth dilution method; format: cell-based
# From the text: as §1
# The minimal fungicidal concentrations of amphotericin B for the first 6 isolates of Candida albicans listed in Table 1 were determined by incubating the disks and organisms for 48 hours. At concentrations below the minimum fungicidal concentration, overgrowth occurred by 48 hours.
# [11] = cited from earlier work
compound,measurement,setting,value
"C[C@@H]1[C@H](O)[C@@H](C)/C=C/C=C/C=C/C=C/C=C/C=C/C=C/[C@H](O[C@@H]2O[C@H](C)[C@@H](O)[C@H](N)[C@@H]2O)C[C@@H]2O[C@](O)(C[C@@H](O)C[C@@H](O)[C@H](O)CC[C@@H](O)C[C@@H](O)CC(=O)O[C@H]1C)C[C@H](O)[C@H]2C(=O)O [Amphotericin B, amphotericin B]",MIC,"Candida albicans [1]; isolate 1, read-out: Minimum Inhibitory Concentration, Broth",0.4 µg/mL
same,MIC,"Candida albicans [1]; isolate 2, read-out: Minimum Inhibitory Concentration, Broth",0.7 µg/mL
same,MIC,"Candida albicans [1]; isolate 3, read-out: Minimum Inhibitory Concentration, Broth",0.1 µg/mL
same,MIC,"Candida albicans [1]; isolate 4, read-out: Minimum Inhibitory Concentration, Broth",0.6 µg/mL
same,MIC,"Candida albicans [1]; isolate 5, read-out: Minimum Inhibitory Concentration, Broth",0.8 µg/mL
same,MIC,"Candida albicans [1]; isolate 6, read-out: Minimum Inhibitory Concentration, Broth",1.5 µg/mL
same,MIC,"C. parapsilosis; read-out: Minimum Inhibitory Concentration, Broth, C. parapsilosis isolate 1",0.8 µg/mL
same,MIC,"C. parapsilosis; read-out: Minimum Inhibitory Concentration, Broth, C. parapsilosis isolate 2",0.6 µg/mL
same,MIC,C. tropicalis,0.7 µg/mL
same,MIC,"Cryptococcus neoformans [2]; read-out: Minimum Inhibitory Concentration, Disk, C. neoformans isolate 2",0.2 µg/mL
same,MIC,"Cryptococcus neoformans [2]; read-out: Minimum Inhibitory Concentration, Disk, C. neoformans isolate 3",0.5 µg/mL
same,MIC,"Cryptococcus neoformans [2]; read-out: Minimum Inhibitory Concentration, Disk, Cryptococcus neoformans isolate 1",0.4 µg/mL
same,MIC,"Cryptococcus neoformans [3]; read-out: Minimum Inhibitory Concentration, Broth, C. neoformans isolate 2",0.4 µg/mL
same,MIC,"Cryptococcus neoformans [3]; read-out: Minimum Inhibitory Concentration, Broth, C. neoformans isolate 3",0.5 µg/mL
same,MIC,"Cryptococcus neoformans [3]; read-out: Minimum Inhibitory Concentration, Broth, Cryptococcus neoformans isolate 1",0.5 µg/mL
same,MIC,Geotrichum candidum [4],0.8 µg/mL
same,MIC,Geotrichum candidum [5],0.9 µg/mL
same,MIC,"Saccharomyces cerevisiae; read-out: Minimum Inhibitory Concentration, Broth, S. cerevisiae isolate 2",0.8 µg/mL
same,MIC,"Saccharomyces cerevisiae; read-out: Minimum Inhibitory Concentration, Broth, Saccharomyces cerevisiae isolate 1",0.4 µg/mL
same,MIC,Trichosporon sp. [6],0.9 µg/mL
same,MIC,Trichosporon sp. [7],1.1 µg/mL
same,MIC,Torulopsis glabrata [8],0.2 µg/mL
same,MIC,Torulopsis glabrata [9],0.3 µg/mL
same,MFC,Candida albicans [10]; isolate 1,1.5 µg/mL
same,MFC,Candida albicans [10]; isolate 2,1.6 µg/mL
same,MFC,Candida albicans [10]; isolate 3,0.8 µg/mL
same,MFC,Candida albicans [10]; isolate 4,1.1 µg/mL
same,MFC,Candida albicans [10]; isolate 5,1.6 µg/mL
same,MFC,Candida albicans [10]; isolate 6,6.5 µg/mL
same,stability in acid,[11]; in the presence of acid,unstable in the presence of acid
same,thermal stability,[11]; upon incubation,subject to thermal destruction upon incubation
same,solubility in water,[11]; water,insoluble in water
